Data from publication PMC7650794, “Pharmacological Modulation of Blood–Brain Barrier Permeability by Kinin Analogs in Normal and Pathologic Conditions” (Pharmaceuticals, 2020).
“Also recorded” adds a separate entry of the source. Non-standard residues stand in square brackets, D forms with d. Residues, ends and D or L forms follow the SMILES beside them. No end group written: not given here. Hyp = O=C(O)[C@@H]1C[C@@H](O)CN1; 2Thi = N[C@@H](Cc1cccs1)C(=O)O; Gly(N-cHex) = O=C(O)CNC1CCCCC1

How the values were obtained:
[1] = target: T1, human B2R (Homo sapiens, UniProt P30411); experiment: IP-One accumulation assay, human B2R-HEK293 cells; format: cell-based; details: for EC50: IP1 accumulation, 30 min, room temperature, pH 7.4, 50 mM LiCl, human B2R-HEK293, 15,000 cells per well, mean of two independent experiments performed in duplicates, read-out: IP1 Assays (EC50; nM)
T1 construct: expressed in transfected cells; host or cells: QBI HEK 293A cells, lentiviral transduction with pCDH-BDKRB2, puromycin selection
T1 sequence (P30411 1-391): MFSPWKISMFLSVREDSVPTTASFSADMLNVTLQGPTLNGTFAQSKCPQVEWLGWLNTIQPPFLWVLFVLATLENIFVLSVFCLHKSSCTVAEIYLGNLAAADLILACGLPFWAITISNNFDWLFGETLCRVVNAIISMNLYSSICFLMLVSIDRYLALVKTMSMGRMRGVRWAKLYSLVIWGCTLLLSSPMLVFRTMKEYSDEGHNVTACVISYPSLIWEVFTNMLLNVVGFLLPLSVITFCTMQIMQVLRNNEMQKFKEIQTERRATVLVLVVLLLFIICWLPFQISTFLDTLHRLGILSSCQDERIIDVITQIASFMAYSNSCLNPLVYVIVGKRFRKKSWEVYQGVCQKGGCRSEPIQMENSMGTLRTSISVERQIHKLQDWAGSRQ
Description: The IP-One assay was performed on living, adherent human B2R-HEK293 cells according to the manufacturer’s recommendations (Cisbio, #62IPAPEB, Bedford, MA, USA). […] IP1-d2 and anti-IP1-Cryptate were added for at least 1 h. Fluorescence signal was measured using a Tecan M1000 plate reader (excitation at 320 nm and emission at 620 and 665 nm). EC50 values were calculated by curve-fitting using GraphPad Prism 8.2.

[2] = target: T1, human B2R; experiment: Radioligand displacement binding assay, [3H]BK, human B2R-HEK293 cells; details: for IC50: displacement of 1 nM [3H]BK, living adherent HEK293 cells stably expressing human B2R, serum-free DMEM, 1.5 h, 4 °C, mean of two independent experiments performed in duplicates; for binding affinity at human B2R, in words: HEK293 cells stably expressing human B2R
Description: The pCDH-BDKRB2 vector was produced from the plasmid pcDNA3.1/human BDKRB2 by PCR amplification using the primers 5′-[…]-3′ and 5′-[…]-3′, and introduced into pCDH-CMV-MCS-EF1 vector using BamHI et XbaI restriction sites. Lentiviruses were produced from pCDH-BDKRB2 vector in HEK293T cells using the X-tremeGENE HP transfection reagent (Millipore-Sigma, Oakville, ON, Canada). Lentiviruses were harvested 48 h post-transfection and used to infect QBI HEK 293A cells (ATCC). Transduced cells were selected using 5 µg/mL of puromycin (Thermo Fisher, Burlington, On, Canada).
Radioligand displacement binding assays were performed as we previously described, with slight modifications. HEK293 cells stably expressing human B2R were used for these assays (see text above). […] Radioactivity of samples was measured by a β-scintillation counter (PerkinElmer, Woodbridge, On, Canada). Binding affinities of peptides were expressed in terms of IC50 values—the molar concentration of an unlabeled agonist causing 50% displacement of specific binding (GraphPad Prism 8.2).

[3] = test system: BBB / brain cancer; parameters: method as in PMID 22709590; details: ref [33]; cited from earlier work
[4] = test system: GBM cells; details: vs. temozolomide (TMZ); ref [33]; cited from earlier work
[5] = test system: leucocytes, brain; details: exogenous BK; ref [21],[24]; cited from earlier work
[6] = test system: BBB / BTB; parameters: method as in 2 sources, one per row (each row's own in cited_ref): ref [2],[13] = [2]; PMID 15153840; doi:10.1177/107327480401100304; 2. Black K.L. Ningaraj N.S. Modulation of brain tumor capillaries for enhanced drug delivery selectively to brain tumor Cancer Control. 2004 11 165 173 10.1177/107327480401100304 15153840 || [13]; PMID 11286321; doi:10.2165/00003088-200140020-00003; 13. Emerich D.F. Dean R.L. Osborn C. Bartus R.T. The development of the bradykinin agonist labradimil as a means to increase the permeability of the blood-brain barrier: From concept to clinical evalu ||| ref [2],[46],[47] = [2]; PMID 15153840; doi:10.1177/107327480401100304; 2. Black K.L. Ningaraj N.S. Modulation of brain tumor capillaries for enhanced drug delivery selectively to brain tumor Cancer Control. 2004 11 165 173 10.1177/107327480401100304 15153840 || [46]; PMID 20146088; doi:10.1007/s11060-010-0124-x; 46. Liu L.B. Xue Y.X. Liu Y.H. Bradykinin increases the permeability of the blood-tumor barrier by the caveolae-mediated transcellular pathway J. Neurooncol. 2010 99 187 194 10.1007/s11060-010-0124-x || [47]; PMID 12023511; doi:10.1124/jpet.301.3.838; 47. Ningaraj N.S. Rao M. Hashizume K. Asotra K. Black K.L. Regulation of blood-brain tumor barrier permeability by calcium-activated potassium channels J. Pharmacol. Exp. Ther. 2002 301 838 851 10.112; details: increased numbers of pinocytotic vesicles or caveolae; ref [2],[46],[47]; cited from earlier work
Description: Kinin effects are mediated through specific activation of two types of receptors, namely, the kinin B1 (B1R) and B2 receptors (B2R), both belonging to the G-protein-coupled receptor family. […] The strategy exploiting targeted stimulation of the kinin receptors could perhaps ...

[7] = test system: normal mice; experiment: Tolerability / blood pressure effect in anesthetized normal mice; format: in vivo, mouse
[8] = test system: 4T1-luc mammary cancer cells, brain metastases in mice; experiment: 4T1-luc breast cancer brain metastasis model; format: in vivo, mouse; details: NG291 50 μg/kg over 5 min i.v., single dose, 18 days, 6–8 animals
Description: Mice were anesthetized using 1.5 L/min oxygen-containing isoflurane (3% for induction, 2% for maintenance) and secured with tape in a supine position on a heating pad. A total of 1 × 10^5 4T1-Luc cells suspended in 100 µL of sterile saline was slowly injected into the left ventricle of the heart using a 1 mL Hamilton syringe mounted with a 30G needle as described previously. For BBB disruption experiments, a cannula was placed in the caudal vein and a single dose of NG291 (50 µg/kg/5 min) was infused into the caudal vein while simultaneously injecting the cancer cells intracardially. Successful intracardiac injection and tumor development was evaluated weekly by bioluminescence imaging. The development of brain metastatic tumor burden was determined by histological analysis.
Brain sections from mice inoculated with 4T1-Luc cells were stained with hematoxylin-eosin (H and E) for histological examination and metastases quantification using the NanoZoomer Digital Pathology software (Hamamatsu, NDP.view version 2.7.25). H and E staining was performed on brain sections every 20–30 µm. The relative total area and number of metastatic foci in the entire brain section were calculated from manual delineation of metastases in digital images of H and E-stained brain slides using the NanoZoomer NDP.view2 viewing software free hand tool. […] A total of 68 slices were analyzed.

[9] = test system: angiotensin-converting enzyme (ACE, alias kininase II); details: ref [26]; cited from earlier work
[10] = test system: BBB, irradiated mouse brain; experiment: DCE-MRI of BBB permeability to Gd-DTPA in irradiated mouse brain; format: in vivo; details: T1-weighted, 10 months after 45 Gy; Gd-DTPA alone or with NG291 50 µg/kg i.v.
Description: Female Balb/c mice were anesthetized using 1.5 L/min oxygen containing isoflurane (3% for induction, 2% for maintenance) and positioned on a custom-designed stereotactic bed compatible with the Leksell Gamma Knife Perfexion (Elekta AB, Stockholm, Sweden). A maximum dose of 45 Gy (23.1 Gy at the 50% isodose) was delivered through 4 mm collimators in the right hemisphere of the brain. Mouse and human brains have different sensitivities to radiation. This dose was selected because it allows the development and slow progression of radiation necrosis (approximatively appearing at 17 months post-irradiation in T2-weighted MRI; Figure 4), similar to what may be observed in brain cancer patients who received radiotherapy. After irradiation, mice were placed on a heating pad to recover, and were then returned to their cages.
For dynamic contrast-enhanced (DCE)-MRI imaging, pre-contrast T1-weighted imaging with an array of flip angles (α = 10°, 20°, 25°, 35°, 50°) was performed to acquire a T1 map with the following parameters: TR = 100 ms, TE = 2.79 ms, data matrix = 128 × 128, FOV = 20 × 20 mm^2; 1 average; 10 slices; 1 mm slice thickness. Then, a dynamic acquisition with the same parameters and a fixed angle at 30° was acquired before, during, and after injection of contrast agent. […]

## N=C(N)NCCC[C@@H](N)C(=O)N[C@@H](CCCNC(=N)N)C(=O)N1CCC[C@H]1C(=O)N1C[C@H](O)C[C@H]1C(=O)NCC(=O)N[C@H](C(=O)N[C@@H](CO)C(=O)N1[C@H](C(=O)N[C@H](C(=O)N[C@@H](CCCNC(=N)N)C(=O)O)C2Cc3ccccc3C2)C[C@@H]2CCCC[C@@H]21)C1Cc2ccccc2C1 [B9972, DArg[Hyp^3, Igl^5, Oic^7, Igl^8]-BK]
[1]
  EC50: 158 nM
[2]
  IC50: 199 nM

## COc1cccc2c1C(=O)c1c(O)c3c(c(O)c1C2=O)C[C@@](O)(C(=O)CO)C[C@@H]3O[C@H]1C[C@H](N)[C@H](O)[C@H](C)O1 [DOX, doxorubicin]
[3]
  BBB crossing and in vivo efficacy in brain cancer: does not readily cross the BBB and so shows poor efficacy in in vivo models
[4]
  potency for killing GBM cells in vitro: more potent than temozolomide (TMZ) for killing GBM cells in vitro

## RPPGFSPFR [BK, H-Arg^1-Pro^2-Pro^3-Gly^4-Phe^5-Ser^6-Pro^7-Phe^8-Arg^9-OH]
[5]
  brain trafficking of IV-infused leucocytes: can increase brain trafficking of IV-infused leucocytes
[2]
  binding affinity at human B2R, in words: higher binding affinity (IC50)
[6]
  BTB permeability by the transcellular pathway: may increase BTB permeability, as well by means of the transcellular pathway

## N=C(N)NCCC[C@@H](N)C(=O)N[C@H](Cc1ccccc1)C(=O)N1CCC[C@@H]1C(=O)N[C@H](CO)C(=O)N[C@H](Cc1ccccc1)C(=O)NCC(=O)N1CCC[C@@H]1C(=O)N1CCC[C@@H]1C(=O)N[C@H](CCCNC(=N)N)C(=O)O [RI-BK, D(retroinverso)-BK] (H-[dR][dF][dP][dS][dF]G[dP][dP][dR]-OH; N-terminus and C-terminus assumed)
[1]; IP1, HEK293 cells stably expressing human B2R
  agonist activity/potency at human B2R, in words: no binding affinity and agonist activity at human B2R
[1]
  EC50: > 10000 nM
[2]
  binding affinity at human B2R, in words: no binding affinity
  IC50: > 10000 nM

## N=C(N)NCCC[C@H](NC(=O)[C@H](Cc1cccs1)NC(=O)CN(C(=O)[C@H](CO)NC(=O)[C@H](Cc1cccs1)NC(=O)CNC(=O)[C@@H]1C[C@@H](O)CN1C(=O)[C@@H]1CCCN1C(=O)[C@@H](N)CCCNC(=N)N)C1CCCCC1)C(=O)O [NG291, [Hyp^3, Thi^5, ^NChg^7, Thi^8]-BK] (H-RP[Hyp]G[2Thi]S[Gly(N-cHex)][2Thi]R-OH)
[7]; high dose i.v. NG291, ketamine/xylazine-anesthetized normal mice, strong but reversible, not shown
  hypotensive effect: about -35 mmHg
[7]; high dose i.v. NG291, normal mice
  tolerability: generally well-tolerated
[1]
  EC50: 0.9 nM
[8]
  effect on brain tumor burden and number of metastases, in words: did not significantly increase brain tumor burden; also recorded: no difference in terms of both area and number of metastases
[2]
  IC50: 3 nM
[9]
  protection against enzymatic degradation by ACE: fully protected against enzymatic degradation by the angiotensin-converting enzyme

## CNC[C@H](O)[C@@H](O)[C@H](O)[C@H](O)CO.CNC[C@H](O)[C@@H](O)[C@H](O)[C@H](O)CO.O=C([O-])CN(CCN(CC(=O)[O-])CC(=O)O)CCN(CC(=O)[O-])CC(=O)O.[Gd+3] [Gd-DTPA]
[10]
  contrast enhancement in the irradiated hemisphere: Minimal contrast enhancement was observed in the irradiated hemisphere
